In EPA's ToxValDB 9.5:

Test system: Rattus norvegicus
Settings: short-term, duration: 28 days, oral, gavage, Sprague-Dawley

With `O=C(O)C(F)(F)C(F)(F)C(F)(F)C(F)(F)C(F)(F)C(F)(F)C(F)(F)C(F)(F)C(F)(F)F` [Perfluorodecanoic acid] the NOEL (F, Survival rates) was 2.5 mg/kg-day, the LOEL (F, body weight) was 1.25 mg/kg-day and the LOEL (M, Clinical chemistry_Alanine aminotransferase) was 0.312 mg/kg-day. The LOEL (M, Clinical chemistry_Albumin) was 1.25 mg/kg-day, the LOEL (M, Clinical chemistry_Albumin/globulin ratio) was 0.156 mg/kg-day and the LOEL (M, Clinical chemistry_Alkaline phosphatase) was 0.312 mg/kg-day. The LOEL (M, Clinical chemistry_Aspartate aminotransferase) was 0.156 mg/kg-day, the LOEL (M, Clinical chemistry_Cholesterol) was 0.156 mg/kg-day and the NOEL (M, Clinical chemistry_Creatinine kinase) was 2.5 mg/kg-day. For the same compound, the LOEL (M, Clinical chemistry_Direct bilirubin) was 1.25 mg/kg-day, the LOEL (M, Clinical chemistry_Free thyroxine) was 0.312 mg/kg-day and the LOEL (M, Clinical chemistry_Globulin) was 0.156 mg/kg-day. It also gave an LOEL (M, Clinical chemistry_Indirect bilirubin) of 1.25 mg/kg-day, an NOEL (M, Clinical chemistry_Sorbitol dehydrogenase) of 2.5 mg/kg-day and an LOEL (M, Clinical chemistry_Testosterone) of 1.25 mg/kg-day. The NOEL (M, Clinical chemistry_Thyroid stimulating hormone) was 2.5 mg/kg-day, the LOEL (M, Clinical chemistry_Total bile acids) was 1.25 mg/kg-day and the LOEL (M, Clinical chemistry_Total bilirubin) was 1.25 mg/kg-day. The LOEL (M, Clinical chemistry_Total protein) was 0.156 mg/kg-day, the NOEL (M, Clinical chemistry_Total thyroxine) was 2.5 mg/kg-day and the NOEL (M, Clinical chemistry_Total triiodothyronine) was 2.5 mg/kg-day. The LOEL (M, Clinical chemistry_Triglycerides) was 1.25 mg/kg-day, the LOEL (M, Gene expression_Acox1) was 0.156 mg/kg-day and the LOEL (M, Gene expression_Acyl-CoA oxidase) was 0.156 mg/kg-day. It also gave an LOEL (M, Gene expression_Cyp2b1) of 0.156 mg/kg-day, an LOEL (M, Gene expression_Cyp2b2) of 0.156 mg/kg-day and an LOEL (M, Gene expression_Cyp4a1) of 0.156 mg/kg-day. It also gave an LOEL (M, Hematology_Erythrocytes) of 2.5 mg/kg-day, an NOEL (M, Hematology_Hematocrit) of 2.5 mg/kg-day and an NOEL (M, Hematology_Hemoglobin) of 2.5 mg/kg-day. For the same compound, the LOEL (M, Hematology_Mean corpuscular hemoglobin concentration) was 0.625 mg/kg-day, the LOEL (M, Hematology_Mean corpuscular volume) was 1.25 mg/kg-day and the NOEL (M, Hematology_Platelets) was 2.5 mg/kg-day. It also gave an LOEL (M, Hematology_Reticulocytes) of 1.25 mg/kg-day, an LOEL (M, Nonneoplastic effects_Bone marrow - Hypocellularity) of 2.5 mg/kg-day and an LOEL (M, Nonneoplastic effects_Epididymis - Duct, exfoliated germ cell) of 2.5 mg/kg-day. It also gave an NOEL (M, Nonneoplastic effects_Epididymis - Epithelium, apoptosis) of 2.5 mg/kg-day, an NOEL (M, Nonneoplastic effects_Epididymis - Hypospermia) of 2.5 mg/kg-day and an NOEL (M, Nonneoplastic effects_Forestomach - Epithelium, hyperplasia) of 2.5 mg/kg-day. It also gave an NOEL (M, Nonneoplastic effects_Forestomach - Inflammation, chronic active) of 2.5 mg/kg-day, an NOEL (M, Nonneoplastic effects_Kidney - Nephropathy, chronic progressive) of 2.5 mg/kg-day and an NOEL (M, Nonneoplastic effects_Liver - Hepatocyte, Necrosis) of 2.5 mg/kg-day. The LOEL (M, Nonneoplastic effects_Liver - Hepatocyte, cytoplasmic alteration) was 0.625 mg/kg-day, the LOEL (M, Nonneoplastic effects_Liver - Hepatocyte, hypertrophy) was 1.25 mg/kg-day and the LOEL (M, Nonneoplastic effects_Liver - Hepatocyte, vacuolization cytoplasmic) was 1.25 mg/kg-day. For the same compound, the NOEL (M, Nonneoplastic effects_Lymph nodes - Mandibular, atrophy) was 2.5 mg/kg-day, the NOEL (M, Nonneoplastic effects_Lymph nodes - Mesenteric, atrophy) was 2.5 mg/kg-day and the NOEL (M, Nonneoplastic effects_Nose - Olfactory epithelium, degeneration) was 2.5 mg/kg-day. For the same compound, the NOEL (M, Nonneoplastic effects_Nose - Olfactory epithelium, hyperplasia) was 2.5 mg/kg-day, the NOEL (M, Nonneoplastic effects_Nose - Olfactory epithelium, inflammation, suppurative) was 2.5 mg/kg-day and the NOEL (M, Nonneoplastic effects_Nose - Respiratory epithelium, hyperplasia) was 2.5 mg/kg-day. It also gave an NOEL (M, Nonneoplastic effects_Nose - Respiratory epithelium, inflammation, chronic active) of 2.5 mg/kg-day, an NOEL (M, Nonneoplastic effects_Spleen - Atrophy) of 2.5 mg/kg-day and an NOEL (M, Nonneoplastic effects_Spleen - Extramedullary hematopoiesis, increased) of 2.5 mg/kg-day. The LOEL (M, Nonneoplastic effects_Testes - Germinal epithelium, degeneration) was 2.5 mg/kg-day, the LOEL (M, Nonneoplastic effects_Testes - Interstitial cell, atrophy) was 1.25 mg/kg-day and the LOEL (M, Nonneoplastic effects_Testes - Seminiferous tubule, spermatid retention) was 2.5 mg/kg-day. For the same compound, the LOEL (M, Nonneoplastic effects_Thymus - Atrophy) was 2.5 mg/kg-day, the LOEL (M, Nonneoplastic effects_Thymus - Lymphocyte, apoptosis) was 1.25 mg/kg-day and the NOEL (M, Nonneoplastic effects_Thyroid gland - Follicular cell hypertrophy) was 2.5 mg/kg-day. For the same compound, the LOEL (M, Organ weights_Liver - Absolute) was 0.156 mg/kg-day, the LOEL (M, Organ weights_Liver - Relative) was 0.156 mg/kg-day and the LOEL (M, Organ weights_R. adrenal gland - Absolute) was 0.156 mg/kg-day. The LOEL (M, Organ weights_R. adrenal gland - Relative) was 2.5 mg/kg-day, the LOEL (M, Organ weights_R. kidney - Absolute) was 2.5 mg/kg-day and the LOEL (M, Organ weights_R. kidney - Relative) was 0.625 mg/kg-day. The LOEL (M, Organ weights_R. testis - Absolute) was 2.5 mg/kg-day, the LOEL (M, Organ weights_Spleen - Absolute) was 1.25 mg/kg-day and the LOEL (M, Organ weights_Spleen - Relative) was 2.5 mg/kg-day. For the same compound, the LOEL (M, Organ weights_Thymus - Absolute) was 1.25 mg/kg-day, the LOEL (M, Organ weights_Thymus - Relative) was 1.25 mg/kg-day and the NOEL (M, Organ weights_Thyroid gland - Absolute) was 2.5 mg/kg-day. It also gave an LOEL (M, Organ weights_Thyroid gland - Relative) of 1.25 mg/kg-day, an LOEL (M, Reproductive toxicity_Altered sperm parameters) of 2.5 mg/kg-day and an NOEL (M, Survival rates) of 2.5 mg/kg-day. For the same compound, the LOEL (M, body weight) was 1.25 mg/kg-day.
